# Measurements from patent US20240409501A1, “CYRSTALLINE FORMS OF RIP1 INHIBITOR” (SIRONAX LTD., priority 2021, published 2024).
# Entries after “also recorded” stand apart in the source; their conditions may differ.
# Key:
# Format in all cases: physicochemical
# [1] = Photo stability under white light and ultraviolet (ICH guideline)
# Description: Photo stability of Type A (817506-48-A2) was assessed under both white light (1,200,000 Lux-hrs) and ultraviolet (200 W·hrs/m^2) conditions according to the ICH guideline. […] Only an endotherm at about 95° C. was observed on the DSC curves (FIGS. 42-43).
# [2] = Solid state stability (XRPD, DSC, HPLC after storage); settings: for % of Initial: HPLC purity
# Description: To evaluate the solid state stability, a Type A sample (817506-48-A2) was stored under 80° C. for one day, and 25° C./60% RH and 40° C./75% RH for one week each. […] DSC characterization results were shown from FIG. 35 to FIG. 37. Only one endotherm at about 95° C. was observed, indicating the solids under all the conditions were pure Type A.
# (§1) An Agilent 1290 UPLC with DAD detector and Agilent 1260 HPLC with VWD detector were use and detailed chromatographic conditions for purity and solubility analysis are listed in Table 42 and Table 43.
# [3] = Equilibrium solubility of Type A in H2O at RT
# Description: Equilibrium solubility of Type A in H2O was measured at RT. Specifically, 10.0 mg of a Type A sample (817506-48-A2) was suspended into 1 mL of H2O (˜1000 rpm) at RT. After 24 hrs, the suspension was centrifuged (10000 rpm, 5 min, RT) followed by filtration (0.45 μm PTFE membrane). The supernatant (first few drops were discarded) was analyzed for HPLC solubility and pH, and the residual solids were used for XRPD analysis.
# as §1
# [4] = Hygroscopicity, DVS isotherm at 25° C. between 0 and 95% RH
# Description: To investigate the solid from stability as a function of humidity, a DVS isotherm plot of Type A (817506-48-A2) was collected at 25° C. between 0 and 95% RH. […] (onset) after the DVS test.
# DVS was measured Via an SMS (Surface Measurement Systems) DVS Intrinsic. The relative humidity at 25° C. was calibrated against deliquescence point of LiCl. Mg(NO3)2 and KCl.
# [5] = Form conversion of Type C on vacuum drying (XRPD); settings: vacuum dried at 50° C.
# Description: Type C of N-(3,5-difluorobenzyl)-N-hydroxy-2,2-dimethylbutanamide (817506-10-A10) was obtained via liquid vapor diffusion of a DMSO solution of a starting material (817506-01-A) in H2O atmosphere.
# [6] = Approximate solubility in 20 solvent systems at RT
# Description: Approximate solubility of N-(3,5-difluorobenzyl)-N-hydroxy-2,2-dimethylbutanamide (817506-01-A) was measured in 20 solvent systems at RT. Approximately 2 mg of the sample was added into a 3-mL glass vial. Solvents as shown in Table 36 were then added stepwise (50/50/200/700/1000 μL) into the vials until the solids were dissolved visually or a total volume of 2 mL was reached. Solubility results summarized in Table 36 were used to guide the solvent selection in preparing the solid forms as disclosed herein.
# [7] = White light (1,200,000 Lux-hrs)
smiles,measurement,setting,value
"CCC(C)(C)C(=O)N(O)Cc1cc(F)cc(F)c1 [Type A, N-(3,5-difluorobenzyl)-N-hydroxy-2,2-dimethylbutanamide]",Form,[1]; UV (200 W·hrs/m^2),Type A
same,Purity (area %),[1]; UV (200 W·hrs/m^2),100.0 area %
same,Form,[1]; [7],Type A
same,Purity (area %),[1]; [7],100.0 area %
same,form change after photo stability evaluation,"[1]; both white light and ultraviolet, XRPD and DSC",No crystalline form change or HPLC purity decrease; also recorded: no form change
same,purity decrease after photo stability evaluation,"[1]; white light and ultraviolet, HPLC",no purity decrease
same,Final Form,[2]; 25° C./60% RH/1 w,Type A
same,% of Initial,[2]; 25° C./60% RH/1 w,100.0%
same,Final Form,[2]; 40° C./75% RH/1 w,Type A
same,% of Initial,[2]; 40° C./75% RH/1 w,100.0%
same,Final Form,[2]; 80° C./1 d,Type A
same,% of Initial,[2]; 80° C./1 d,100.0%
same,form change or decrease in purity,"[2]; all conditions: 80° C. one day, 25° C./60% RH and 40° C./75% RH one week each",No crystalline form change or HPLC purity decrease; also recorded: No form change or decrease in purity
same,Form change,"[3]; after suspending in H2O at RT for about 24 hrs, XRPD of residual solids",no crystalline type change and no form change and No
same,pH,[3]; supernatant after suspension in H2O at RT for 24 hrs,8.7
same,solubility at 24 h,"[3]; water, thermodynamic from solid, equilibrium solubility in H2O, RT, 24 hrs, HPLC",~0.15 mg/mL
same,water uptake (DVS plot),[4]; 25° C./80VRH,0.1%
same,water uptake (DVS),[4]; 80% RH/25° C.,about 0.10%
same,hygroscopicity,[4]; DVS at 25° C.,non-hygroscopic
same,form change after the DVS test,[4]; XRPD before and after DVS,no form change
"CCC(C)(C)C(=O)N(O)Cc1cc(F)cc(F)c1 [Type C, N-(3,5-difluorobenzyl)-N-hydroxy-2,2-dimethylbutanamide]",form after drying,[5],converted to Type A
"CCC(C)(C)C(=O)N(O)Cc1cc(F)cc(F)c1 [N-(3,5-difluorobenzyl)-N-hydroxy-2,2-dimethylbutanamide]",solubility,"[6]; organic solvent or mixture, thermodynamic from solid, 1,4-Dioxane, RT",> 46 mg/mL
same,solubility,"[6]; organic solvent or mixture, thermodynamic from solid, 2-MeTHF, RT",2.2 to 7.3 mg/mL
same,solubility,"[6]; organic solvent or mixture, thermodynamic from solid, ACN, RT",> 50 mg/mL
same,solubility,"[6]; organic solvent or mixture, thermodynamic from solid, Acetone, RT",> 46 mg/mL
same,solubility,"[6]; organic solvent or mixture, thermodynamic from solid, CHCl3, RT",> 50 mg/mL
same,solubility,"[6]; organic solvent or mixture, thermodynamic from solid, DCM, RT",> 50 mg/mL
same,solubility,"[6]; organic solvent or mixture, thermodynamic from solid, DMAc, RT",21 to 42 mg/mL
same,solubility,"[6]; organic solvent or mixture, thermodynamic from solid, DMSO, RT",> 42 mg/mL
same,solubility,"[6]; organic solvent or mixture, thermodynamic from solid, EtOAc, RT",> 44 mg/mL
same,solubility,"[6]; organic solvent or mixture, thermodynamic from solid, EtOH, RT",> 40 mg/mL
same,solubility,"[6]; organic solvent or mixture, thermodynamic from solid, IPA, RT",> 42 mg/mL
same,solubility,"[6]; organic solvent or mixture, thermodynamic from solid, IPAC, RT",> 50 mg/mL
same,solubility,"[6]; organic solvent or mixture, thermodynamic from solid, MIBK, RT",> 50 mg/mL
same,solubility,"[6]; organic solvent or mixture, thermodynamic from solid, MTBE, RT",2.3 to 7.7 mg/mL
same,solubility,"[6]; organic solvent or mixture, thermodynamic from solid, MeOH, RT",> 46 mg/mL
same,solubility,"[6]; organic solvent or mixture, thermodynamic from solid, NMP, RT",2.4 to 48 mg/mL
same,solubility,"[6]; organic solvent or mixture, thermodynamic from solid, THF, RT",25 to 50 mg/mL
same,solubility,"[6]; organic solvent or mixture, thermodynamic from solid, Toluene, RT",20 to 40 mg/mL
same,solubility,"[6]; organic solvent or mixture, thermodynamic from solid, n-Heptane, RT",< 1 mg/mL
same,solubility,"[6]; water, thermodynamic from solid, H2O, RT",< 1.3 mg/mL
